Experimental data as given in paper PMC3914891, “Pentacyclic Nitrofurans with In Vivo Efficacy and Activity against Nonreplicating Mycobacterium tuberculosis” (PLoS ONE, 2014).
Values after ≈ are worked out from the molar mass of the structure shown. Like-named read-outs stand apart in the source and are kept apart here.

Columns and labels:
[1] = test system: Burkholderia cepacia (ATCC 25416); experiment: MIC, spectrum of activity: B.c.; type: cell-based; details: ATCC25416, read-out: Minimum Inhibitory Concentration, B.c.
[2] = test system: Enterococcus faecalis (ATCC 33186); experiment: MIC, spectrum of activity: E.f.; type: cell-based; details: ATCC33186, read-out: Minimum Inhibitory Concentration, E.f.
M. tuberculosis = experiment: MIC determination, microbroth dilution, M. tuberculosis; type: cell-based, Mycobacterium tuberculosis; details: Mycobacterium tuberculosis
[3] = test system: Staphylococcus aureus (NRS70); experiment: MIC, spectrum of activity: MRSA; type: cell-based; details: read-out: Minimum Inhibitory Concentration, MRSA
[4] = test system: Bacillus anthracis sterne 34F2; experiment: microbe, parasite or virus in culture; type: cell-based; details: STERNE34F2, read-out: Minimum Inhibitory Concentration, B.a.
[5] = test system: Streptococcus pneumoniae (R6); experiment: MIC, spectrum of activity: S.pn; type: cell-based; details: read-out: Minimum Inhibitory Concentration, S. Pn.
[6] = test system: Streptococcus pyogenes (ATCC 700294); experiment: MIC, spectrum of activity: S.py; type: cell-based; details: ATCC700294, read-out: Minimum Inhibitory Concentration, S. Py.
[7] = test system: Stenotrophomonas maltophilia (ATCC 13637); experiment: MIC, spectrum of activity: S.m.; type: cell-based; details: ATCC13637, read-out: Minimum Inhibitory Concentration, S.m.
[8] = test system: Escherichia coli (ATCC 700926); experiment: MIC, spectrum of activity: E.c.; type: cell-based; details: ATCC700926, read-out: Minimum Inhibitory Concentration, E.c.
in vitro [9] = details: mouse, microsomes
in vitro [10] = details: mouse, plasma
physchem = details: pH 7.4, aqueous buffer
[11] = test system: Staphylococcus aureus (ATCC 29213); experiment: MIC, spectrum of activity: S.a.; type: cell-based; details: ATCC29213, read-out: Minimum Inhibitory Concentration, S.a
[12] = test system: Bacillus subtilis (ATCC 23857); experiment: MIC, spectrum of activity: B.s.; type: cell-based; details: ATCC23857, read-out: Minimum Inhibitory Concentration, B.s.
[13] = In vitro cytotoxicity against Vero cells; details: African green monkey, Vero cells (kidney epithelial cells, ATCC CCL-81)
Vero cells = experiment: In vitro cytotoxicity against Vero cells
E. coli K12 ∆tolC = type: cell-based; details: E. coli K12 ∆tolC (efflux pump deficient)
[14] = test system: M. tuberculosis strain H37Rv; experiment: Checkerboard synergy assay; type: cell-based, Mycobacterium tuberculosis; details: for MIC: Mycobacterium tuberculosis, H37RV, 168 h, read-out: MIC Alone
M. tuberculosis H37Rv = experiment: Minimum bactericidal concentration determination; type: cell-based, Mycobacterium tuberculosis
M. ulcerans (ATCC 35840) = experiment: MIC by agar proportion method: M. ulcerans; type: cell-based; details: Mycobacterium ulcerans, ATCC35840, 672 h, read-out: Minimum Inhibitory Concentration, M. ulcerans
[15] = test system: M. abscessus (ATCC 19977); experiment: MIC, non-tuberculosis mycobacteria: M. abscessus; type: cell-based; details: Mycobacteroides abscessus, ATCC19977, 72 h; broth dilution, visual inspection, 3 days; range of at least two independent experiments; read-out: Minimum Inhibitory Concentration, M. abscessus
M. fortuitum (ATCC 6841) = experiment: MIC, non-tuberculosis mycobacteria: M. fortuitum; type: cell-based; details: Mycolicibacterium fortuitum, ATCC6841, 72 h; broth dilution, visual inspection, 3 days; read-out: Minimum Inhibitory Concentration, M. fortuitum
M. kansasii (ATCC 12478) = experiment: MIC, non-tuberculosis mycobacteria: M. kansasii; type: cell-based; details: Mycobacterium kansasii, ATCC12478, 168 h; broth dilution, visual inspection, 7 days; read-out: Minimum Inhibitory Concentration, M. kansasii
M. avium (ATCC 25291) = experiment: MIC, non-tuberculosis mycobacteria: M. avium; type: cell-based; details: Mycobacterium avium, ATCC25291, 168 h; broth dilution, visual inspection, 7 days; read-out: Minimum Inhibitory Concentration, M. avium
[16] = test system: hypoxic M. tuberculosis strain H37Rv; experiment: NRP bacteria under hypoxia (rapid anaerobic dormancy model); type: cell-based, Mycobacterium tuberculosis

In the case of O=[N+]([O-])c1ccc(C2=NOC(c3ccc(N4CCC(Oc5ccc(F)cc5)CC4)c(F)c3)C2)o1 (centres unmarked) [Compound 9f, 5-(3-Fluoro-4-(4-(4-fluorophenoxy)piperidin-1-yl)phenyl)-3-(5-nitrofuran-2-yl)-4,5-dihydroisoxazole], the MIC [1] is reported as 12.5 µg/mL (≈ 26.6 µM), the MIC [2] is reported as 6.3 µg/mL (≈ 13.4 µM) and the MIC (M. tuberculosis; 168 h, read-out: M. tb. MIC) is reported as 0.012 µg/mL. For the same compound, the MIC [3] was 12.5 µg/mL (≈ 26.6 µM), the MIC [4] was > 200 µg/mL and the MIC [5] was 25 µg/mL (≈ 53.3 µM). For the same compound, the MIC [6] was 50 µg/mL (≈ 107 µM), the MIC [7] was > 200 µg/mL and the MIC [8] was > 200 µg/mL. For the same compound, the half-life (in vitro [9]) was 1.74 h, the fraction unbound (in vitro [10]) was 0.002 and the solubility (physchem) was 0.8 µg/mL (≈ 1.7 µM). It also gave an MIC [11] of 3.13 µg/mL (≈ 6.67 µM), an MIC [12] of 25 µg/mL (≈ 53.3 µM) and an IC50 [13] of 8 µg/mL (≈ 17 µM). The “Selective Index (Cytox/MIC)” value (Vero cells) was 667 and the “Minimum Inhibitory Concentration, E.c. ΔtolC” value (E. coli K12 ∆tolC) was 12.5 µg/mL.

In the case of CC[C@@H](CO)NCCN[C@@H](CC)CO [Ethambutol], the “FICI with 9a” value [14] is reported as 0.75–1.00, the “MIC in presence of 9a” value [14] is reported as 0.8 µg/mL and the “Type of Interaction” value [14] is reported as “Indifference (key: Synergy: synergy (FICI ≤0.5); Indifference: indifference (FICI >0.5–4.0); Antagonism: antagonism (FICI >4.0))”. It also gave an MIC [14] of 1.6 µg/mL.

For CC(=O)NC[C@H]1CN(c2ccc(N3CCOCC3)c(F)c2)C(=O)O1 [Linezolid], the “FICI with 9a” value [14] was 1.00, the “MIC in presence of 9a” value [14] was 0.8 µg/mL and the “Type of Interaction” value [14] was “Indifference (key: Synergy: synergy (FICI ≤0.5); Indifference: indifference (FICI >0.5–4.0); Antagonism: antagonism (FICI >4.0))”. For the same compound, the MIC [14] was 1.6 µg/mL.

In the case of C[C@]1(COc2ccc(N3CCC(Oc4ccc(OC(F)(F)F)cc4)CC3)cc2)Cn2cc([N+](=O)[O-])nc2O1 [OPC-67683], the MIC (M. tuberculosis; 168 h, read-out: M. tb. MIC) is reported as 0.01 µg/mL, the MIC (M. tuberculosis; M. tuberculosis, […], read-out: MIC) is reported as 0.019 µM and the MBC (M. tuberculosis H37Rv) is reported as >3. For the same compound, the Classification (M. tuberculosis H37Rv; cidal or static from MBC versus MIC) was “Static (static (MBC/MIC >4))”, the half-life (in vitro [9]) was 27.2 h and the fraction unbound (in vitro [10]) was 0.002. For the same compound, the IC50 [13] was 107 µg/mL (≈ 200 µM).

In the case of CO[C@H]1/C=C/O[C@@]2(C)Oc3c(C)c(O)c4c(O)c(c(/C=N/N5CCN(C)CC5)c(O)c4c3C2=O)NC(=O)/C(C)=C\C=C\[C@H](C)[C@H](O)[C@@H](C)[C@@H](O)[C@@H](C)[C@H](OC(C)=O)[C@@H]1C [Rifampin], the MIC (M. ulcerans (ATCC 35840)) is reported as 0.1 to 0.4 µg/mL (≈ 0.122 to 0.486 µM), the MIC [15] is reported as 50 µg/mL (≈ 60.8 µM) and the “FICI with 9a” value [14] is reported as 0.38. The “MIC in presence of 9a” value [14] was 0.003 µg/mL, the “Type of Interaction” value [14] was “Synergy (key: Synergy: synergy (FICI ≤0.5); Indifference: indifference (FICI >0.5–4.0); Antagonism: antagonism (FICI >4.0))” and the “fold decrease of MIC in the presence of 9a” value [14] was ~10 fold. The MIC [14] was 0.02 to 0.05 µg/mL, the MIC (M. fortuitum (ATCC 6841)) was 1.56 µg/mL (≈ 1.9 µM) and the MIC (M. kansasii (ATCC 12478)) was 0.39 µg/mL (≈ 0.474 µM). For the same compound, the MIC (M. avium (ATCC 25291)) was 6.3 µg/mL (≈ 7.66 µM) and the “% Growth vs. Control” value [16] was <0.1%.

For [H]/N=C(/N)N[C@H]1[C@H](O)[C@@H](O)[C@H](O[C@@H]2O[C@@H](C)[C@](O)(C=O)[C@H]2O[C@@H]2O[C@@H](CO)[C@H](O)[C@@H](O)[C@@H]2NC)[C@@H](N/C(N)=N\[H])[C@@H]1O [Streptomycin], the Classification (M. tuberculosis H37Rv) was “Cidal (key: Cidal: cidal (MBC/MIC ≤4); Static: static (MBC/MIC >4))”, the MBC (M. tuberculosis H37Rv) was 3.13–6.25 and the MBC/MIC (M. tuberculosis H37Rv) was ≤ 4. The “FICI with 9a” value [14] was 0.75, the “MIC in presence of 9a” value [14] was 0.4 to 0.8 µg/mL and the “Type of Interaction” value [14] was “Indifference (key: Synergy: synergy (FICI ≤0.5); Indifference: indifference (FICI >0.5–4.0); Antagonism: antagonism (FICI >4.0))”. For the same compound, the MIC [14] was 1.6 µg/mL.
